Test results as given in patent US10544092B2 (priority 2015, dated 2020).

Legend:
Assay type in all cases: in vivo
[1] = system: soft rot of chinese cabbage; assay: control of soft rot of chinese cabbage (cut leaves); conditions: dosage 400 mg/L, 48 hours
Method: Soft rot of chinese cabbage: Chinese cabbage leaves are cut into 2 cm square and placed on the double filter paper in a petri dish. The testing compound is dissolved in DMF and diluted with water to the desired concentration. The testing solution is sprayed onto the surface of the cabbage leaf and dried in a fume hood. The surface of cabbage leaf is pierced using inoculation needle. A spore suspension (5 μl) of the chinese cabbage soft rot bacteria in the stable growth phase is inoculated onto the breakage of leaves, disease development is allowed to progress in a growth cabinet under dark condition for 48 hours. The activity of the compound is evaluated based on germination or growth of control treatment.

[2] = system: melon bacterial fruit blotch; assay: control of melon bacterial fruit blotch (seed soaking); conditions: dosage 800 mg/L, after 2 weeks
Method: Melon bacterial fruit blotch: The testing compound is dissolved in a small amount of DMF and diluted with water to the desired concentration. The pathogenic bacteria in the stable growth phase is mixed with the testing solution. After melon seeds (accelerating germination) soaked in the solution containing pathogenic bacteria and compound for 0.5 hour, the seeds are sown in earthworm soil cup and then transferred into a greenhouse to allow disease to develop. After 2 weeks, The activity of the compound is evaluated based on germination or growth of control treatment

[3] = system: bacterial leaf streak of rice (Xanthomonas oryzae pv. oryzicola); conditions: field trial; for Disease control (%) repeat I / Disease control (%) repeat II / Disease control (%) repeatIII: 400 g a.i./hm^2, a week after 3 spray applications; for Disease control (%) average: 400 g a.i./hm^2, average of repeats I-III

Compound	control against soft rot of chinese cabbage [1] [%]	control against melon bacterial fruit blotch [2] [%]	Disease control (%) repeat I [3] [%]	Disease control (%) repeat II [3] [%]	Disease control (%) repeatIII [3] [%]	Disease control (%) average [3] [%]
N#CC(C#N)=NOCc1cccc(Br)c1 [Compound 9]	100	100				
COc1ccc(CON=C(C#N)C#N)cc1 [Compound 19]	100					
N#CC(C#N)=NOCc1ccc([N+](=O)[O-])cc1 [Compound 34]	100					
N#CC(C#N)=NOCc1cccc(C#N)c1 [Compound 36]	100					
N#CC(C#N)=NOCc1ccc(C#N)cc1 [Compound 37]	100					
N#CC(C#N)=NOCc1ccc(Cl)c(Cl)c1 [Compound 59]	100	100	56.96	58.37	51.24	55.52
N#CC(C#N)=NOCc1ccc(F)c(F)c1 [Compound 83]	100	100				
thiazole zinc [reference compound]			39.21	37.24	37.88	38.11
